# Results: US20250152585A1, “PHARMACEUTICAL COMPOUND” (Duke Street Bio Limited, priority 2022, published 2025)
# Where two headings read alike, the source gives them in different places.
# How the values were obtained:
# [1] = molecular target: T1, N-terminally FLAG-tagged PARP2 (amino acids 1-583) (Homo sapiens, UniProt Q9UGN5); experiment: PARP2 probe displacement HTRF assay; format: binding; settings: binned Kd
# T1 construct: N-terminally FLAG-tagged PARP2 (amino acids 1-583)
# Protocol: Data analysis was performed identical as for PARP1.
# [2] = molecular target: T2, full length N-terminally FLAG-tagged PARP1 (Homo sapiens, UniProt P09874); experiment: PARP1 probe displacement HTRF assay; settings: for Selectivity: PARP1 over PARP2, ratio Kd (PARP2)/Kd (PARP1); for Kd: binned Kd
# [3] = molecular target: T2, full length N-terminally FLAG-tagged PARP1; experiment: PARP1 biochemical DELFIA assay (auto-PARylation); design: recombinant full length human N-terminally FLAG-tagged PARP1
# [4] = read-out: PARP1 HTRF, PARP1 probe displacement HTRF
# [5] = binned IC50, PARP1 biochemical DELFIA assay
# [6] = read-out: PARP1 HTRF, probe displacement HTRF
# [7] = binned IC50, biochemical auto-PARylation assay
# [8] = PARP1 HTRF, PARP1 probe displacement HTRF
# T1 sequence (Q9UGN5 whole entry, the tested form may be a part): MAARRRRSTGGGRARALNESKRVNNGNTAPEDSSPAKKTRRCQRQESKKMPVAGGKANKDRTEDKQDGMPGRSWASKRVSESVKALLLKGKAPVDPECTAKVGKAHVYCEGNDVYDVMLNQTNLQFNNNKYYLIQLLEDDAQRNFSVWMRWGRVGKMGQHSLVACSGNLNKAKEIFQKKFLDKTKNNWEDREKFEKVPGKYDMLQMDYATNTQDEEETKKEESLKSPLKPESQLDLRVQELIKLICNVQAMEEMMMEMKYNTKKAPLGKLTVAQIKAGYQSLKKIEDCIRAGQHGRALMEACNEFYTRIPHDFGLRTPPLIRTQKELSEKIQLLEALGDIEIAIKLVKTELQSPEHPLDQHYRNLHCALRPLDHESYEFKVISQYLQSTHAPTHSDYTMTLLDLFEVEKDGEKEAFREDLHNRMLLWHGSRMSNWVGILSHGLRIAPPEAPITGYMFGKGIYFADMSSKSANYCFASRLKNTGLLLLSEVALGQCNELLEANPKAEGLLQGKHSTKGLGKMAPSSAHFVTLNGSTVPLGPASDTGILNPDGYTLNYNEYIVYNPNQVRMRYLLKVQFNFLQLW
# T2 sequence (P09874 whole entry): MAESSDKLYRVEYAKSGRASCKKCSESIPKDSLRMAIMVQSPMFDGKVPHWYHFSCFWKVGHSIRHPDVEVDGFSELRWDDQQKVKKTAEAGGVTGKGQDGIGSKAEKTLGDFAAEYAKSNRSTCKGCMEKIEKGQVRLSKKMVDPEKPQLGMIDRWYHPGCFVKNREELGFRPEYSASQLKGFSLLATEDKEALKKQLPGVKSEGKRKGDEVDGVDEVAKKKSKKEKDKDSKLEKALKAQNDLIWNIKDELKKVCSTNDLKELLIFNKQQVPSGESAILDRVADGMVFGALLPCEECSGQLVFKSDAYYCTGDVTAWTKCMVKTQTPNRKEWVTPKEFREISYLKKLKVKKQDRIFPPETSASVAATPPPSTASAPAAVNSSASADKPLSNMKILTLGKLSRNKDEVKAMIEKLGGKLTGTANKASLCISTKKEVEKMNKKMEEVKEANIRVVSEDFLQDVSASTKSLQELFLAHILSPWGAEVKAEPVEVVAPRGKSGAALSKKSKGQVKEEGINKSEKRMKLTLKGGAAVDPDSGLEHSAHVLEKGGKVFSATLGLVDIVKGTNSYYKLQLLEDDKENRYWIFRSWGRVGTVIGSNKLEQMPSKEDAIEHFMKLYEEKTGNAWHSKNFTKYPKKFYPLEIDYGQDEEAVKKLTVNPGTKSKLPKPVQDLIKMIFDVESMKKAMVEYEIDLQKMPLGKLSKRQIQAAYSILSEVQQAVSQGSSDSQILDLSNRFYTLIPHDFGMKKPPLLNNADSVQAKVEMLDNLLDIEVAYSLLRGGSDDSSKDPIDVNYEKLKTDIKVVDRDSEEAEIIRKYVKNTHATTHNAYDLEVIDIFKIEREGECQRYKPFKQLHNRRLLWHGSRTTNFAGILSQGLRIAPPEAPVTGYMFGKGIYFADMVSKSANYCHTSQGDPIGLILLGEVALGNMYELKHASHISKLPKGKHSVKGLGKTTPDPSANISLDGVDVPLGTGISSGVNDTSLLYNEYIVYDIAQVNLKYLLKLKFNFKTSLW
SMILES,Kd ([1]; PARP2 probe displacement HTRF) [nM],Selectivity ([2]; probe displacement HTRF),"Kd [2, 4] [nM]","IC50 [3, 5] [nM]",Kd ([1]; probe displacement HTRF) [nM],"Kd [2, 6] [nM]","IC50 [3, 7] [nM]","Kd [2, 8] [nM]","Kd ([2]; PARP1 HTRF, probe displacement HTRF) [nM]"
"CCc1ccc(C2CCN(C3CCN(c4ccc(C(=O)NC)nc4C)CC3)C2)[nH]c1=O (single isomer, unassigned) [Compound 133a]",1000 to 10000,+++ (+++ indicate a value of at least 100),< 10,< 10,–,–,–,–,–
CNC(=O)c1ccc(N2CCC(N3CCC(c4[nH]c(=O)c5cc(F)ccc5c4F)C3)CC2)c(F)n1 (racemic) [Compound 403rac],–,+++ (+++ indicate a value of at least 100),–,–,10 to 100,< 10,< 10,–,–
"CCc1ccc(C2CCN(C3CCN(c4ccc(OC(F)F)nc4)CC3)C2)[nH]c1=O (single isomer, unassigned) [Compound 382a]",–,+ (+ indicates a value of 10 to less than 50),–,–,> 10000,100 to 1000,100 to 1000,–,–
"CNC(=O)c1ccc(N2CCC(N3CCC(c4nc5ccccc5c(=O)[nH]4)C3)CC2)cn1 (single isomer, unassigned) [Compound 10a, N-methyl-5-(4-(3-(4-oxo-3,4-dihydroquinazolin-2-yl)pyrrolidin-1-yl)piperidin-1-yl)picolinamide]",100 to 1000,+++ (+++ indicate a value of at least 100),–,10 to 100,–,–,–,< 10,–
CNC1(c2ccc(N3CCC(N4CCC(c5nc6ccccc6c(=O)[nH]5)C4)CC3)cn2)CC1 (racemic) [Compound 412rac],–,+ (+ indicates a value of 10 to less than 50),–,–,> 10000,100 to 1000,100 to 1000,–,–
"CCc1ccc(C2CCN(C3CCN(c4ccc(C(=O)NC5CC5)nc4)CC3)C2)[nH]c1=O (single isomer, unassigned) [Compound 338b]",–,++ (++ indicates a value of 50 to less than 100),–,–,1000 to 10000,10 to 100,10 to 100,–,–
"CNC(=O)c1ccc(N2CCC(N3CCC(c4cc5cccc(F)c5c(=O)[nH]4)C3)CC2)cn1 (racemic) [Compound 136rac, 5-{4-[3-(8-fluoro-1-oxo-2H-isoquinolin-3-yl)pyrrolidin-1-yl]piperidin-1-yl}-N-methylpyridine-2-carboxamide]",10 to 100,+++ (+++ indicate a value of at least 100),–,< 10,–,–,–,< 10,–
"CNC(=O)c1ccc(N2CCC(N3CCC(F)(c4nc5ccccc5c(=O)[nH]4)C3)CC2)cn1 (single isomer, unassigned) [Compound 328b]",–,+++ (+++ indicate a value of at least 100),–,–,> 10000,10 to 100,10 to 100,–,–
"CNC(=O)c1ccc(N2CCC(N3CCCC(c4ncc(C(F)(F)F)c(=O)[nH]4)C3)CC2)cn1 (single isomer, unassigned) [Compound 73a]",> 10000,− (− indicates a value of less than 10),100 to 1000,100 to 1000,–,–,–,–,–
"CNC(=O)c1ncc(N2CCC(N3CCC(c4cc5ccc(F)cc5c(=O)[nH]4)C3)CC2)cc1F (single isomer, unassigned) [Compound 395a]",–,+ (+ indicates a value of 10 to less than 50),–,–,100 to 1000,< 10,< 10,–,–
CCc1ccc(C2(F)CCN(C3CCN(c4ccc(C(=O)NC)nc4F)CC3)C2)[nH]c1=O (racemic) [Compound 415rac],–,+++ (+++ indicate a value of at least 100),–,–,> 10000,< 10,10 to 100,–,–
CNC(=O)c1ccc(N2CCC(N3CCC(c4nc5ccccc5c(=O)[nH]4)C3)CC2)c(Cl)n1 (racemic) [Compound 104rac],1000 to 10000,+++ (+++ indicate a value of at least 100),< 10,< 10,–,–,–,–,–
"CNC(=O)c1ccc(N2CCC(N3CCC(c4nc5ccc(F)c(F)c5c(=O)[nH]4)C3)CC2)cn1 (single isomer, unassigned) [Compound 222a]",–,+ (+ indicates a value of 10 to less than 50),–,–,100 to 1000,< 10,< 10,–,–
"CNC(=O)c1ccc(N2CCC(N3CCC(c4[nH]c(=O)c5ccccc5c4C(F)(F)F)C3)CC2)cn1 (single isomer, unassigned) [Compound 404b]",–,+++ (+++ indicate a value of at least 100),–,–,1000 to 10000,< 10,< 10,–,–
"N#Cc1nc(C(=O)NC2CC2)ccc1N1CCC(N2CCC(c3cc4ccc(F)cc4c(=O)[nH]3)C2)CC1 (single isomer, unassigned) [Compound 397a]",–,+++ (+++ indicate a value of at least 100),–,–,100 to 1000,< 10,< 10,–,–
CNC(=O)c1ccc(N2CCC(N3CCCC(c4nc5ccccc5c(=O)[nH]4)C3)CC2)c(C(F)(F)F)n1 (racemic) [Compound 138rac],1000 to 10000,++ (++ indicates a value of 50 to less than 100),10 to 100,10 to 100,–,–,–,–,–
"CCc1ccc(C2CCN(C3CCN(c4ccc(C(=O)NC5CC5)nc4C#N)CC3)C2)[nH]c1=O (single isomer, unassigned) [Compound 409a]",–,+++ (+++ indicate a value of at least 100),–,–,1000 to 10000,< 10,< 10,–,–
"CNC(=O)c1ccc(N2CCC(N3CCC(c4ccc(CCOC)c(=O)[nH]4)C3)CC2)cn1 (single isomer, unassigned) [Compound 240a]",–,++ (++ indicates a value of 50 to less than 100),–,–,> 10000,10 to 100,10 to 100,–,–
CNC(=O)c1ccc(N2CCC(N3CC4(c5nc6cccc(F)c6c(=O)[nH]5)CC3C4)CC2)cn1 [Compound 227],–,+++ (+++ indicate a value of at least 100),–,–,100 to 1000,–,< 10,–,< 10
"CNC(=O)c1ccc(N2CCC(N3CCCC(c4nc5sc6c(c5c(=O)[nH]4)CCC6)C3)CC2)cn1 (single isomer, unassigned) [Compound 185a]",100 to 1000,+++ (+++ indicate a value of at least 100),< 10,< 10,–,–,–,–,–
"CCNC(=O)c1ccc(N2CCC(N3CCC(c4nc5ccccc5c(=O)[nH]4)C3)CC2)cn1 (single isomer, unassigned) [Compound 111b]",100 to 1000,+++ (+++ indicate a value of at least 100),< 10,< 10,–,–,–,–,–
"CCc1ccc(C2CCN(C3CCN(c4cnc(C(=O)NC)cc4C)CC3)C2)[nH]c1=O (single isomer, unassigned) [Compound 217b]",100 to 1000,++ (++ indicates a value of 50 to less than 100),< 10,< 10,–,–,–,–,–
"CNC(=O)c1ccc(N2CCC(N3CCC(c4nc5c(c(=O)[nH]4)CCCN5C)C3)CC2)cn1 (single isomer, unassigned) [Compound 208a, N-methyl-5-(4-(3-(8-methyl-4-oxo-3,4,5,6,7,8-hexahydropyrido[2,3-d]pyrimidin-2-yl)pyrrolidin-1-yl)piperidin-1-yl)picolinamide]",100 to 1000,+ (+ indicates a value of 10 to less than 50),–,< 10,–,–,–,10 to 100,–
"CNC(=O)c1ccc(N2CCC(N3CCC(c4nc5c(C(F)(F)F)c[nH]c5c(=O)[nH]4)C3)CC2)cn1 (single isomer, unassigned) [Compound 293a]",–,− (− indicates a value of less than 10),–,–,> 10000,> 10000,> 10000,–,–
"CNC(=O)c1ccc(N2CCC(N3CCC(c4ccc(CC(F)(F)F)c(=O)[nH]4)C3)CC2)cn1 (single isomer, unassigned) [Compound 188b]",100 to 1000,+++ (+++ indicate a value of at least 100),< 10,< 10,–,–,–,–,–
"N#Cc1ccc(N2CCC(N3CCC(c4cc5cccc(F)c5c(=O)[nH]4)C3)CC2)nc1 (single isomer, unassigned) [Compound 340b]",–,+ (+ indicates a value of 10 to less than 50),–,–,100 to 1000,10 to 100,10 to 100,–,–
